Patent US9791443B2, “Method for differentially quantifying naturally processed HLA-restricted peptides for cancer, autoimmune and infectious diseases immunotherapy development” (IMMATICS BIOTECHNOLOGIES GMBH, priority 2010, dated 2017)

Test system: CD8+ T cells
Experiment: In vitro immunogenicity: priming of CD8+ T cells with pMHC/anti-CD28 coated beads (aAPC), A*2402 multimer staining
Type: cell-based, human
Conditions: HLA-A*24 healthy donors, three stimulation cycles; for Positive donors/donors tested [%]: positive among evaluable donors, at least two donors evaluable per peptide; for Positive wells/wells tested [%]: positive among evaluable wells, at least 24 wells evaluable per peptide
Description: To get information regarding the immunogenicity of the TUMAPs of the present invention, we performed investigations using a well established in vitro stimulation platform already described by (Walter, S, Herrgen, L, Schoor, O, Jung, G, Wernet, D, Buhring, H J, Rammensee, H G, and Stevanovic, S; 2003, Cutting edge: predetermined avidity of human CD8 T cells expanded on calibrated MHC/anti-CD28-coated microspheres, J. Immunol., 171, 4974-4978).
In order to perform in vitro stimulations by artificial antigen presenting cells (aAPC) loaded with peptide-MHC complex (pMHC) and anti-CD28 antibody, we first isolated CD8 T cells from fresh HLA-A*24 leukapheresis products of healthy donors obtained from the Blood Bank Tuebingen.
CD8 T cells were either directly enriched from the leukapheresis product or PBMCs (peripheral blood mononuclear cells) were isolated first by using standard gradient separation medium (PAA, Cölbe, Germany). Isolated CD8 lymphocytes or PBMCs were incubated until use in T-cell medium (TCM) consisting of RPMI-Glutamax (Invitrogen, Karlsruhe, Germany) supplemented with 10% heat inactivated human AB serum (PAN-Biotech, Aidenbach, Germany), 100 U/ml Penicillin/100 μg/ml Streptomycin (Cambrex, Cologne, Germany), 1 mM sodium pyruvate (CC Pro, Oberdorla, Germany), 20 μg/ml Gentamycin (Cambrex). 2.5 ng/ml IL-7 (PromoCell, Heidelberg, Germany) and 10 U/ml IL-2 (Novartis Pharma, Nürnberg, Germany) were also added to the TCM at this step. Isolation of CD8+ lymphocytes was performed by positive selection using CD8 MicroBeads (Miltenyi Biotec, Bergisch-Gladbach, Germany).
Generation of pMHC/anti-CD28 coated beads, T-cell stimulations and readout was performed as described before (Walter et al. 4974-78) with minor modifications. Briefly, biotinylated peptide-loaded recombinant HLA-A*2402 molecules lacking the transmembrane domain and biotinylated at the carboxy terminus of the heavy chain were produced. The purified costimulatory mouse IgG2a anti human CD28 Ab 9.3 (Jung, Ledbetter, and Muller-Eberhard 4611-15) was chemically biotinylated using Sulfo-N-hydroxysuccinimidobiotin as recommended by the manufacturer (Perbio, Bonn, Germany).
800.000 beads/200 μl were coated in 96-well plates in the presence of 600 ng biotin anti-CD28 plus 200 ng relevant biotin-pMHC (high density beads). Stimulations were initiated in 96-well plates by co-incubating 1×10^6 CD8+ T cells with 2×10^5 washed coated beads in 200 μl TCM supplemented with 5 ng/ml IL-12 (PromoCell) for 3-4 days at 37° C. Half of the medium was then exchanged by fresh TCM supplemented with 80 U/ml IL-2 and incubating was continued for 3-4 days at 37° C. This stimulation cycle was performed for a total of three times. Finally, multimeric analyses were performed by staining the cells with Live/dead-Aqua dye (Invitrogen, Karlsruhe, Germany), CD8-FITC antibody clone SK1 (BD, Heidelberg, Germany) and PE- or APC-coupled A*2402 MHC multimers. For analysis, a BD LSRII SORP cytometer equipped with appropriate lasers and filters was used. Peptide specific cells were calculated as percentage of total CD8+ cells. Evaluation of multimeric analysis was done using the FlowJo software (Tree Star, Oregon, USA). In vitro priming of specific multimer+ CD8+ lymphocytes was detected by appropriate gating and by comparing to negative control stimulations.

AYAIIKEEL (listed as Homo sapiens) [ATAD2-001]
Positive donors/donors tested [%]: 50%
Positive wells/wells tested [%]: 4%

AYLVYTDRL (listed as Homo sapiens) [PPAP2C-001]
Positive donors/donors tested [%]: 100%
Positive wells/wells tested [%]: 54%

FYISPVNKL (listed as Homo sapiens) [AVL9-001]
Positive donors/donors tested [%]: 100%
Positive wells/wells tested [%]: 50%

HYKPTPLYF (listed as Homo sapiens) [SMC4-001]
Positive donors/donors tested [%]: 75%
Positive wells/wells tested [%]: 9%

IYNGKLFDLL (listed as Homo sapiens) [KIF2C-001]
Positive donors/donors tested [%]: 13%
Positive wells/wells tested [%]: 2%

KYNDTFWKEF (listed as Homo sapiens) [HSP90B1-001]
Positive donors/donors tested [%]: 50%
Positive wells/wells tested [%]: 4%

LYQILQGIVF (listed as Homo sapiens) [CDC2-001]
Positive donors/donors tested [%]: 88%
Positive wells/wells tested [%]: 28%

NYEETFPHI (listed as Homo sapiens) [MUC6-001]
Positive donors/donors tested [%]: 50%
Positive wells/wells tested [%]: 21%

NYLLYVSNF [MMP11-001]
Positive donors/donors tested [%]: 33%
Positive wells/wells tested [%]: 11%

NYLLYVSNF [MST1R-001] (listed as Homo sapiens)
Positive donors/donors tested [%]: 50%
Positive wells/wells tested [%]: 14%

NYLPFIMEL (listed as Homo sapiens) [UCHL5-001]
Positive donors/donors tested [%]: 75%
Positive wells/wells tested [%]: 14%

QYASRFVQL (listed as Homo sapiens) [PLK4-001]
Positive donors/donors tested [%]: 60%
Positive wells/wells tested [%]: 5%

RFLSGIINF (listed as Homo sapiens) [NUF2-002]
Positive donors/donors tested [%]: 50%
Positive wells/wells tested [%]: 4%

RYLWATVTI (listed as Homo sapiens) [ASPM-001]
Positive donors/donors tested [%]: 17%
Positive wells/wells tested [%]: 3%

SYIDVLPEF (listed as Homo sapiens) [MET-006]
Positive donors/donors tested [%]: 63%
Positive wells/wells tested [%]: 22%

SYNPLWLRI (listed as Homo sapiens) [ASPM-002]
Positive donors/donors tested [%]: 63%
Positive wells/wells tested [%]: 31%

TYGNLLDYL (listed as Homo sapiens) [ABL1-001]
Positive donors/donors tested [%]: 50%
Positive wells/wells tested [%]: 13%

VFDTAIAHLF (listed as Homo sapiens) [SIAH2-001]
Positive donors/donors tested [%]: 50%
Positive wells/wells tested [%]: 4%

VFIFKGNQF (listed as Homo sapiens) [MMP3-001]
Positive donors/donors tested [%]: 13%
Positive wells/wells tested [%]: 1%

VWSDVTPLTF [PROM1-001]
Positive donors/donors tested [%]: 83%
Positive wells/wells tested [%]: 26%

VYGIRLEHF (listed as Homo sapiens) [NUF2-001]
Positive donors/donors tested [%]: 100%
Positive wells/wells tested [%]: 25%

VYIEKNDKL (listed as Homo sapiens) [ERBB3-001]
Positive donors/donors tested [%]: 83%
Positive wells/wells tested [%]: 15%

VYKVVGNLL (listed as Homo sapiens) [IQGAP3-001]
Positive donors/donors tested [%]: 100%
Positive wells/wells tested [%]: 24%

VYTTSYQQI (listed as Homo sapiens) [NFYB-001]
Positive donors/donors tested [%]: 50%
Positive wells/wells tested [%]: 7%

YYNAAGFNKL (listed as Homo sapiens) [UQCRB-001]
Positive donors/donors tested [%]: 100%
Positive wells/wells tested [%]: 38%
